According to patent US20190231745A1, “INHIBITORS OF T CELL RECEPTOR AND USES THEREOF” (Consejo Superior De Investigaciones Cientificas, priority 2017, published 2019):
Where a name gives a salt, the structure may show the parent alone.

Tests used:
[1] = tested on: B8R-reactive CD8 T cells in immunized mice; conditions: 10 or 40 mg/kg daily, 7 days
Sprague Dawley rats = experiment: Toxicity after single oral dose, rats; assay type: in vivo
Excerpt: (§1) FIG. S7. Toxicity of AX-024 in mice and rats. (A) Effect of distinct single doses of AX024. HCl administered intraperitoneally on body weight gain of CD-1 mice over 14 days. The data represent the mean±s.e.m. (n=10 per group). (B) Effect of distinct single doses of AX024. HCl administered orally on body weight gain of Swiss albino mice over 14 days. The data represent the mean±s.e.m. (n=2 per group). (C) Effect of distinct single doses of AX-024. HCl administered per orally on body weight gain of Sprague Dawley rats over 14 days. The data represent the mean±s.e.m. (n=2 per group). (D) Summary of acute toxicological findings in different species and calculation of the human equivalent dose.

[2] = tested on: human peripheral blood T cells stimulated with anti-CD3; experiment: Human blood T cell proliferation induced by anti-CD3 (CFSE dilution); assay type: cell-based
[3] = tested on: murine naïve spleen B cells; experiment: B cell proliferation (CellTrace Violet); assay type: cell-based, mouse
Protocol: (§2) FIG. 2. Target specificity of AX-024. […] The experiment was repeated three times. […] RUs, response units.
Proliferation was calculated according to the total number of cell divisions (by Cell-Trace Violet dilution).

CD-1 mice = experiment: Acute toxicity, single intraperitoneal injection; assay type: in vivo, mouse; conditions: single intraperitoneal injection 2.8, 14, 70, 350 mg/kg
Excerpt: as §1
Acute toxicity: Eight-week-old CD-1 mice were injected intraperitoneally with different amounts of the hydrochloride salt of AX-024 (AX-024.HCl) dissolved in 0.5 ml of saline. All animals were observed clinically for the appearance of macroscopically visible adverse reactions twice daily over 14 days, as well as immediately after AX-024 administration. A necropsy was carried out on each animal on day 14, and the abdominal, thoracic, and cranial cavities were examined in situ, together with their associated organs.

[4] = tested on: Nck recruitment to the TCR; experiment: Co-immunoprecipitation of endogenous Nck with the TCR; assay type: cell-based; conditions: human blood T cells stimulated with anti-CD3
Protocol: as §2
For co-immunoprecipitation analysis of endogenous Nck, a total of […] enriched human blood T-cells were pre-incubated in serum-free RPMI medium with compound AX-024 before stimulation with soluble OKT3 (10 μg/ml) for 1 minute at 37° C. Cells were lysed as above, and immunoprecipitation was performed with OKT3 and protein A Sepharose beads. The resulting immunoprecipitated extracts were resolved in a 10% acrylamide SDS-PAGE gel for immunoblotting with a rabbit anti-Nck antibody and reprobed with anti-CD3ζ serum.

[5] = tested on: EAE in MOG-immunized mice; experiment: EAE model, therapeutic treatment; assay type: in vivo, mouse; conditions: oral, therapeutic setting
[6] = tested on: thymocytes of 4 week-old C57BL/6 mice; experiment: Thymocyte differentiation in vivo; design: species or system mouse; conditions: administration for 10 days to 4-week-old mice
Protocol: FIG. S8. Effect of AX-024 on thymocyte differentiation. (A) Flow cytometry analysis of CD24 and TCR expression in thymocytes of 4 week-old C57BL/6 mice exposed to daily doses of oral AX-024 (10 mg/Kg and 40 mg/Kg) or to vehicle alone for 10 consecutive days. Both markers allowed the thymocytes to be divided into five subpopulations (a to e) that were reanalyzed according to CD4 and CD8 expression (right). The data below indicates the percentages of double negative (DN, CD4^− CD8^−), double positive (DP, CD4^+ CD8^+) and single positive (CDSP, CD4^+ CD8^−; CD8SP. CD4^− CD8^+) thymocytes within each a-to-e subpopulation. The data represent the mean±s.e.m. (n=6 mice per group). (B) Absolute cell number in the major thymic DN, DP, CD4SP, CD8SP subpopulations of mice analyzed in A. Numbers of pre- and post-beta selection (DN3 and DN4) and γδT cells are also indicated

Swiss albino mice = experiment: Toxicity after single oral dose, mice; assay type: in vivo, mouse
Excerpt: as §1

[7] = tested on: purified human blood T cells stimulated with anti-CD3; experiment: Microarray analysis of gene expression; assay type: cell-based; conditions: 1 nM, anti-CD3 4 hours, two donors
Protocol: RNA was extracted using the RNAeasy kit according to the manufacturer's instructions (QIAGEN 74134) and its integrity was assessed using an Agilent 2100 Bioanalyzer (Agilent). Labelling and hybridization were performed according to the protocols from Affymetrix. Briefly, 100 ng of total RNA were amplified and labelled using the WT Plus reagent kit (Affymetrix) and then hybridized to Human Gene 2.0 ST Array (Affymetrix). Washing and scanning were performed using the Affymetrix GeneChip System (GeneChip Hybridization Oven 645, GeneChip Fluidics Station 450 and GeneChip Scanner 7G).

[8] = tested on: intracellular F-actin in human blood T cells; experiment: TCR-triggered actin polymerization (phalloidin staining); assay type: cell-based; conditions: T-cell, read-out: IC50 of inhibition of the anti-CD3 elicited increase of intracellular F-actin
[9] = target: CD3ε PRS peptide binding to immobilized SH3.1(Nck1) domain (Homo sapiens, UniProt P16333); experiment: Surface plasmon resonance; conditions: SPR, maximum steady-state response units; read-out: IC50 for the inhibition of CD3ε peptide binding
Protocol: as §2
HBS-EP was used as the running buffer (10 mM HEPES [pH 7.4], 150 mM NaCl, 3 mM EDTA, 0.005% [v/v] Surfactant P20). Immobilization of the GST-Nck1(SH3.1) purified recombinant protein (final concentration 30 μg/ml) was performed by the amino coupling strategy using sodium acetate (10 mM) at pH 4.5 and 150 μL of a solution of EDC/NHS (v/v), with optimum immobilization achieved at approximately 5000 resonance units. For interaction experiments, increasing concentrations of the CD3ε peptide […] and AX-024 were used on the same chip. In all cases, the flow rate was […]. After each interaction, 2.5 M glycine (pH 2) was used to regenerate the surface, and the analyte response after regeneration was constant after repeated injections in all the experiments and within ±10% of the response following the first injection.

ectromelia virus (ECTV) = conditions: mouse, in vivo

| Compound | activation of CD8 T cell response to the viral epitope (IFN-γ production) [1] | toxicity for rodents after single administration (Sprague Dawley rats; doses as high 1600 mg/kg) | single oral doses without any adverse effects on body weight, organ size or lesions (Sprague Dawley rats; rats, oral) [mg/kg] | concentration at which inhibitory effects were shown ([2]; T cell proliferation, anti-CD3) [pM] | potency relative to the AX-000 hit in inhibition of TCR-triggered T cell proliferation ([2]; more potent than AX-000) | B cell proliferation induced by TLR4 agonist LPS ([3]; LPS) | B cell proliferation induced by anti-CD40 ([3]; anti-CD40) | BCR-triggered B cell proliferation ([3]; anti-IgM stimulation, concentrations as high as 10 μM) | body weight gain (CD-1 mice; 14 days) | adverse reactions (CD-1 mice; followed 14 days) | concentrations at which Nck recruitment to the TCR was inhibited (dose-dependent) [4] [nM] | neurological score reached [5] | thymocyte subset numbers [6] | single oral doses without any adverse effects on body weight, organ size or lesions (Swiss albino mice) [mg/kg] | number of genes transcriptionally downregulated [7] [genes] | IC50 [8] [nM] | IC50 [9] [nM] | percentage of IFN-γ responding CD8 T cells upon ex vivo B8R stimulation (ectromelia virus (ECTV)) | survival of rechallenge with lethal dose 60 days later (ectromelia virus (ECTV)) | survival rates, first challenge (ectromelia virus (ECTV)) |
| --- | --- | --- | --- | --- | --- | --- | --- | --- | --- | --- | --- | --- | --- | --- | --- | --- | --- | --- | --- | --- |
| COc1ccc2c(c1)C(c1ccc(F)cc1)=C(CN1CCCC1)CO2 [AX-024.HCl] | Neither dose of the drug significantly inhibited |  |  |  |  |  |  |  |  |  |  |  |  |  |  |  |  |  |  |  |
| COc1ccc2c(c1)C(c1ccc(F)cc1)=C(CN1CCCC1)CO2 [AX-024] |  | not toxic | ≤ 1600 | ≤ 1 | > 10,000 fold | not inhibited | not inhibited | not inhibited | all mice gained weight at a similar rate | no significant adverse reactions | ≥ 1 | 0 | did not have a significant impact | ≤ 400 | 1093 | 1 | ~1 | indistinguishable from that of the vehicle group | resisted the lethal dose, regardless of their AX-024 treatment history | did not influence survival rates |
| CCCCCCCCc1ccc(CCC(N)(CO)CO)cc1 [fingolimod, reference compound] |  |  |  |  |  |  |  |  |  |  |  | 0 |  |  |  |  |  |  |  |  |
